Results published in ChEMBL document CHEMBL1201862, “PubChem BioAssay data set” (2004).
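In this assay, cells in 96-well plates receive the compound at five concentrations for 48 hours. Endpoints are linearly interpolated between the surrounding concentrations. At the GI50, growth is halved.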 Active and inactive are the calls of the source. Rule as the data show it: active = GI50 up to about 1.1 µM and inactive = higher.

Key:
Experiment in all cases: NCI anticancer screen, dose series, 48 h
IGROV-1 = system: IGROV-1
NCI/ADR-RES = system: NCI/ADR-RES
M14 = system: M14
MDA-MB-435 = system: MDA-MB-435
UACC-257 = system: UACC-257
SN12C = system: SN12C
SF-539 = system: SF-539
RPMI-8226 = system: RPMI-8226
HCT-15 = system: HCT-15
RXF 393 = system: RXF 393
SF-295 = system: SF-295
MDA-N = system: MDA-N
OVCAR-3 = system: OVCAR-3
TK-10 = system: TK-10
UO-31 = system: UO-31
DU-145 = system: DU-145
A498 = system: A498
NCI-H460 = system: NCI-H460
HCC 2998 = system: HCC 2998
OVCAR-4 = system: OVCAR-4

Row | SMILES | GI50 (IGROV-1) | GI50 (NCI/ADR-RES) | GI50 (M14) | GI50 (MDA-MB-435) | GI50 (UACC-257) | GI50 (SN12C) | GI50 (SF-539) | GI50 (RPMI-8226) | GI50 (HCT-15) | GI50 (RXF 393) | GI50 (SF-295) | GI50 (MDA-N) | GI50 (OVCAR-3) | GI50 (TK-10) | GI50 (UO-31) | GI50 (DU-145) | GI50 (A498) | GI50 (NCI-H460) | GI50 (HCC 2998) | GI50 (OVCAR-4)
1 | CN1CN(c2ccccc2)C2(CCN(CC(C)(c3ccc(F)cc3)C3OCCCO3)CC2)C1=O (configuration not stated) | 18.5 µM (inactive) | 12.9 µM (inactive) | 16.9 µM (inactive) | 10.9 µM (inactive) | 16 µM (inactive) | 18.1 µM (inactive) | 13.2 µM (inactive) | 10.2 µM (inactive) | 15.3 µM | 19.7 µM (inactive) | 18.4 µM (inactive) | 17.3 µM (inactive) | 11.5 µM (inactive) | 15.5 µM (inactive) | 2.32 µM (inactive) | 27.6 µM (inactive) | – | – | – | –
2 | CNC(=O)CCCNC(=O)CCCC(=O)N(C)C | > 100 µM (inactive) | > 100 µM (inactive) | > 100 µM (inactive) | > 100 µM (inactive) | > 100 µM (inactive) | > 100 µM (inactive) | > 100 µM (inactive) | > 100 µM (inactive) | > 100 µM | – | > 100 µM (inactive) | > 100 µM (inactive) | > 100 µM (inactive) | > 100 µM (inactive) | > 100 µM (inactive) | > 100 µM (inactive) | > 100 µM (inactive) | > 100 µM (inactive) | > 100 µM (inactive) | –
3 | COc1cc(OC)cc(Oc2nc3cc(F)c(F)cc3nc2-c2ccccc2)c1 | > 100 µM (inactive) | > 100 µM (inactive) | > 100 µM (inactive) | > 100 µM (inactive) | > 100 µM (inactive) | > 100 µM (inactive) | > 100 µM (inactive) | – | > 100 µM | > 100 µM (inactive) | > 100 µM (inactive) | > 100 µM (inactive) | > 100 µM (inactive) | > 100 µM (inactive) | > 100 µM (inactive) | > 100 µM (inactive) | > 100 µM (inactive) | > 100 µM (inactive) | – | > 100 µM (inactive)
4 | CC(C)CC1C(=O)NCCC(NC(=O)C(Cc2ccc(OC(C)(C)C)cc2)NC(=O)OC(C)(C)C)C(=O)NC(Cc2ccccc2)C(=O)NC(Cc2ccccc2)NC1=O (configuration not stated) | 16 µM (inactive) | > 100 µM (inactive) | 12.6 µM (inactive) | 2.82 µM (inactive) | 12.1 µM (inactive) | 16.5 µM (inactive) | 23.2 µM (inactive) | 9.75 µM (inactive) | > 100 µM | 10.3 µM (inactive) | 5.75 µM (inactive) | 5.82 µM (inactive) | 4.6 µM (inactive) | 11.7 µM (inactive) | > 100 µM (inactive) | 59.4 µM (inactive) | – | 2.96 µM (inactive) | 17.3 µM (inactive) | 14.9 µM (inactive)
5 | COc1cccc(NC(=O)CC(=O)NN)c1 | > 100 µM (inactive) | > 100 µM (inactive) | – | > 100 µM (inactive) | > 100 µM (inactive) | > 100 µM (inactive) | > 100 µM (inactive) | > 100 µM (inactive) | > 100 µM | > 100 µM (inactive) | > 100 µM (inactive) | > 100 µM (inactive) | > 100 µM (inactive) | > 100 µM (inactive) | > 100 µM (inactive) | > 100 µM (inactive) | > 100 µM (inactive) | > 100 µM (inactive) | – | > 100 µM (inactive)
6 | CCOC(=O)NC(Nc1ccc(C)cc1)(C(F)(F)F)C(F)(F)F | > 100 µM (inactive) | > 100 µM (inactive) | > 100 µM (inactive) | > 100 µM (inactive) | – | > 100 µM (inactive) | > 100 µM (inactive) | > 100 µM (inactive) | > 100 µM | – | > 100 µM (inactive) | > 100 µM (inactive) | > 100 µM (inactive) | > 100 µM (inactive) | > 100 µM (inactive) | > 100 µM (inactive) | > 100 µM (inactive) | > 100 µM (inactive) | > 100 µM (inactive) | > 100 µM (inactive)
7 | CC(=O)c1ccc2c(c1)oc(=O)n2CCN1CCCCC1 | > 100 µM (inactive) | > 100 µM (inactive) | > 100 µM (inactive) | > 100 µM (inactive) | > 100 µM (inactive) | > 100 µM (inactive) | > 100 µM (inactive) | > 100 µM (inactive) | > 100 µM | > 100 µM (inactive) | > 100 µM (inactive) | > 100 µM (inactive) | > 100 µM (inactive) | > 100 µM (inactive) | – | > 100 µM (inactive) | > 100 µM (inactive) | > 100 µM (inactive) | – | –
8 | CCOC(=O)C(C)(C)/C=C\C(Cl)=C(Cl)Cl | > 100 µM (inactive) | > 100 µM (inactive) | > 100 µM (inactive) | > 100 µM (inactive) | > 100 µM (inactive) | > 100 µM (inactive) | > 100 µM (inactive) | > 100 µM (inactive) | – | > 100 µM (inactive) | > 100 µM (inactive) | > 100 µM (inactive) | > 100 µM (inactive) | > 100 µM (inactive) | > 100 µM (inactive) | > 100 µM (inactive) | – | – | > 100 µM (inactive) | –
9 | COC(=O)c1cnn2c1n[n+]([O-])c1ccccc12 | > 100 µM (inactive) | > 100 µM (inactive) | > 100 µM (inactive) | > 100 µM (inactive) | > 100 µM (inactive) | > 100 µM (inactive) | – | > 100 µM (inactive) | – | > 100 µM (inactive) | > 100 µM (inactive) | > 100 µM (inactive) | 25.9 µM (inactive) | > 100 µM (inactive) | 37.4 µM (inactive) | > 100 µM (inactive) | 30.3 µM (inactive) | – | – | –
10 | O=S(=O)(O)c1ccc(/N=N/c2ccc(/N=N/c3c(O)ccc4ccc(S(=O)(=O)O)cc34)cc2)cc1 | > 100 µM (inactive) | > 100 µM (inactive) | > 100 µM (inactive) | > 100 µM (inactive) | > 100 µM (inactive) | > 100 µM (inactive) | > 100 µM (inactive) | > 100 µM (inactive) | > 100 µM | > 100 µM (inactive) | > 100 µM (inactive) | > 100 µM (inactive) | > 100 µM (inactive) | > 100 µM (inactive) | > 100 µM (inactive) | > 100 µM (inactive) | – | > 100 µM (inactive) | > 100 µM (inactive) | > 100 µM (inactive)
11 | CC(C)=NNC1=NC(C)(C)P(=O)(NNc2ncccn2)S1 (configuration not stated) | > 100 µM (inactive) | – | > 100 µM (inactive) | > 100 µM (inactive) | > 100 µM (inactive) | – | > 100 µM (inactive) | – | > 100 µM | > 100 µM (inactive) | > 100 µM (inactive) | > 100 µM (inactive) | > 100 µM (inactive) | > 100 µM (inactive) | > 100 µM (inactive) | > 100 µM (inactive) | > 100 µM (inactive) | > 100 µM (inactive) | > 100 µM (inactive) | > 100 µM (inactive)
12 | N#Cc1nc(-c2ccccn2)oc1N | > 100 µM (inactive) | – | – | > 100 µM (inactive) | > 100 µM (inactive) | > 100 µM (inactive) | – | > 100 µM (inactive) | > 100 µM | > 100 µM (inactive) | > 100 µM (inactive) | > 100 µM (inactive) | > 100 µM (inactive) | > 100 µM (inactive) | > 100 µM (inactive) | > 100 µM (inactive) | > 100 µM (inactive) | > 100 µM (inactive) | > 100 µM (inactive) | > 100 µM (inactive)
13 | NNC(=O)CCCCCCCC(=O)O | > 100 µM (inactive) | > 100 µM (inactive) | > 100 µM (inactive) | > 100 µM (inactive) | > 100 µM (inactive) | > 100 µM (inactive) | > 100 µM (inactive) | > 100 µM (inactive) | > 100 µM | – | > 100 µM (inactive) | > 100 µM (inactive) | > 100 µM (inactive) | > 100 µM (inactive) | > 100 µM (inactive) | > 100 µM (inactive) | > 100 µM (inactive) | > 100 µM (inactive) | > 100 µM (inactive) | > 100 µM (inactive)
14 | CC(=O)/N=C1\N/C(=C/c2cc([N+](=O)[O-])ccc2O)CN1C | > 100 µM (inactive) | > 100 µM (inactive) | > 100 µM (inactive) | > 100 µM (inactive) | > 100 µM (inactive) | > 100 µM (inactive) | > 100 µM (inactive) | – | > 100 µM | – | > 100 µM (inactive) | > 100 µM (inactive) | > 100 µM (inactive) | > 100 µM (inactive) | > 100 µM (inactive) | > 100 µM (inactive) | – | > 100 µM (inactive) | > 100 µM (inactive) | > 100 µM (inactive)
15 | Cn1c(=O)c2c(ncn2CCCCOc2ccc3c(c2)[n+]([O-])nc(N)[n+]3[O-])n(C)c1=O | 15.7 µM (inactive) | > 100 µM (inactive) | 29.4 µM (inactive) | 11.8 µM (inactive) | 23.9 µM (inactive) | 37.4 µM (inactive) | 21.1 µM (inactive) | 30.5 µM (inactive) | 65.2 µM | 14.9 µM (inactive) | 32.6 µM (inactive) | 26.1 µM (inactive) | 20.4 µM (inactive) | 51.6 µM (inactive) | > 100 µM (inactive) | 44.2 µM (inactive) | – | 31 µM (inactive) | 19.2 µM (inactive) | 41.8 µM (inactive)
16 | COc1ccc(-c2cc(=O)c3c(O)c(OC)c(OC)c(OC)c3o2)cc1 [GARDENIN B] | 2.33 µM (inactive) | > 100 µM (inactive) | 16.5 µM (inactive) | 0.431 µM (active) | > 100 µM (inactive) | > 100 µM (inactive) | > 61.7 µM (inactive) | > 28.1 µM (inactive) | 2.37 µM | 10.6 µM (inactive) | 20.7 µM (inactive) | 0.433 µM (active) | 6.47 µM (inactive) | 26.2 µM (inactive) | > 100 µM (inactive) | > 100 µM (inactive) | – | 24.9 µM (inactive) | 1.71 µM (inactive) | > 100 µM (inactive)
